Source: patent US20220088231A1, “RADIOIMMUNOCONJUGATES AND DNA DAMAGE AND REPAIR INHIBITOR COMBINATION THERAPY” (Fusion Pharmaceuticals Inc., priority 2018, published 2022)
Entries after “also recorded” stand apart in the source; their conditions may differ.

Columns and labels:
[1] = Animal tolerability observation during BAY-1895344 dosing in the Colo-205 xenograft study; type: in vivo; settings: Example 2: BAY-1895344 three times a week starting with 40 mg/kg, dose gradually reduced to 20 mg/kg
[2] = system: y-H2AX foci (DSB formation); assay: Immunohistochemical analysis of y-H2AX foci after olaparib treatment in xenograft models; type: in vivo; settings: Example 3: after olaparib treatment, i.p. 10-100 mg/kg; Colo-205 and A549 xenograft models
Experimental: An in vivo efficacy study was conducted with olaparib alone as a single agent. Olaparib was given as a single agent at different doses in a Colo-205 (colorectal cancer) xenograft model and in an A549 (NSCLC) xenograft model. Groups of animals (n=5) were dosed with olaparib (i.p.) 5 days on, 2 days off using 10-100 mg/kg doses.

[3] = system: Colo-205 (colorectal cancer) xenograft model; assay: In vivo efficacy/synergy study, relative tumor volume in Colo-205 xenograft model; settings: for Relative tumor volume: 5 days on
Experimental: (§1) An in vivo efficacy study was conducted with olaparib alone as a single agent. […] Groups of animals (n=5) were dosed with olaparib (i.p.) 5 days on, 2 days off using 10-100 mg/kg doses.
(§2) Combination groups (n=5) were dosed with olaparib (i.p.) 5 days on, 2 days off, using a 50 mg/kg dose for 28 days.

[4] = system: A549 (NSCLC) xenograft model; assay: In vivo efficacy/synergy study, relative tumor volume in A549 xenograft model
Experimental: as §1, §2

SMILES | Animal somnolence [1] | DSB formation by immunohistochemical analysis of y-H2AX foci [2] | Relative tumor volume (single agent efficacy) ([3]; Example 3: olaparib i.p. 5 days on, 2 days off, 10-100 mg/kg doses (FIG. 6A)) | Relative tumor volume ([3]; Example 4, dosing schedule 1 (FIG. 7): [225Ac]-FPI-1434 50 nCi, olaparib i.p. 50 mg/kg, 2 days off for 28 days, pre-dosed 3 times prior to [225Ac]-FPI-1434, up to 28 days) | Relative tumor volume ([3]; Example 5, dosing schedule 2 (FIG. 9): [225Ac]-FPI-1434 50 nCi, olaparib i.p. 50 mg/kg, 2 days off for 28 days, first dose 24 hours after FPI-1434, up to 28 days) | Relative tumor volume ([3]; Example 6 (FIG. 12): lower effective doses, [225Ac]-FPI-1434 20 nCi and olaparib 25 mg/kg i.p., 2 days off from 24 hours after until day 30) | Relative tumor volume (single agent efficacy) ([4]; Example 3: olaparib i.p. 5 days on, 2 days off, 10-100 mg/kg doses (FIG. 6B)) | Relative tumor volume ([4]; Example 4, dosing schedule 1 (FIG. 7): [225Ac]-FPI-1434 200 nCi, olaparib i.p. 50 mg/kg, 5 days on, 2 days off for 28 days, pre-dosed 3 times prior to [225Ac]-FPI-1434, up to 28 days)
C[C@@H]1COCCN1c1cc(-c2ccnn2C)c2ccnc(-c3ccn[nH]3)c2n1 [BAY-1895344] | transient animal somnolence at the higher doses |  |  |  |  |  |  | 
O=C(c1cc(Cc2n[nH]c(=O)c3ccccc23)ccc1F)N1CCN(C(=O)C2CC2)CC1 [olaparib] |  | no increase in DSB formation | modest efficacy as a single agent; also recorded: did not appear to be a dose response | demonstrated some reduction in tumor volume over time | demonstrated significant reduction in tumor volume overtime | no or limited therapeutic effect | modest efficacy as a single agent; also recorded: did not appear to be a dose response | no apparent difference in tumor volume over time
